Among the data in ChEMBL document CHEMBL1124878, “Synthesis, phencyclidine-like pharmacology, and antiischemic potential of meta-substituted 1-(1-phenylcyclohexyl)-1,2,3,6-tetrahydropyridines” (J Med Chem, 1990) are Ki values, retold here.

The target in assay [1] is T1, Glutamate receptor ionotropic, NMDA 2C (Rattus norvegicus, UniProt Q00961). Description: Ability to displace [3H]- TCP from PCP receptor in tissue homogenate preparation of fresh whole rat brain minus cerebellum. Format: tissue-based.
T1 sequence (Q00961 whole entry): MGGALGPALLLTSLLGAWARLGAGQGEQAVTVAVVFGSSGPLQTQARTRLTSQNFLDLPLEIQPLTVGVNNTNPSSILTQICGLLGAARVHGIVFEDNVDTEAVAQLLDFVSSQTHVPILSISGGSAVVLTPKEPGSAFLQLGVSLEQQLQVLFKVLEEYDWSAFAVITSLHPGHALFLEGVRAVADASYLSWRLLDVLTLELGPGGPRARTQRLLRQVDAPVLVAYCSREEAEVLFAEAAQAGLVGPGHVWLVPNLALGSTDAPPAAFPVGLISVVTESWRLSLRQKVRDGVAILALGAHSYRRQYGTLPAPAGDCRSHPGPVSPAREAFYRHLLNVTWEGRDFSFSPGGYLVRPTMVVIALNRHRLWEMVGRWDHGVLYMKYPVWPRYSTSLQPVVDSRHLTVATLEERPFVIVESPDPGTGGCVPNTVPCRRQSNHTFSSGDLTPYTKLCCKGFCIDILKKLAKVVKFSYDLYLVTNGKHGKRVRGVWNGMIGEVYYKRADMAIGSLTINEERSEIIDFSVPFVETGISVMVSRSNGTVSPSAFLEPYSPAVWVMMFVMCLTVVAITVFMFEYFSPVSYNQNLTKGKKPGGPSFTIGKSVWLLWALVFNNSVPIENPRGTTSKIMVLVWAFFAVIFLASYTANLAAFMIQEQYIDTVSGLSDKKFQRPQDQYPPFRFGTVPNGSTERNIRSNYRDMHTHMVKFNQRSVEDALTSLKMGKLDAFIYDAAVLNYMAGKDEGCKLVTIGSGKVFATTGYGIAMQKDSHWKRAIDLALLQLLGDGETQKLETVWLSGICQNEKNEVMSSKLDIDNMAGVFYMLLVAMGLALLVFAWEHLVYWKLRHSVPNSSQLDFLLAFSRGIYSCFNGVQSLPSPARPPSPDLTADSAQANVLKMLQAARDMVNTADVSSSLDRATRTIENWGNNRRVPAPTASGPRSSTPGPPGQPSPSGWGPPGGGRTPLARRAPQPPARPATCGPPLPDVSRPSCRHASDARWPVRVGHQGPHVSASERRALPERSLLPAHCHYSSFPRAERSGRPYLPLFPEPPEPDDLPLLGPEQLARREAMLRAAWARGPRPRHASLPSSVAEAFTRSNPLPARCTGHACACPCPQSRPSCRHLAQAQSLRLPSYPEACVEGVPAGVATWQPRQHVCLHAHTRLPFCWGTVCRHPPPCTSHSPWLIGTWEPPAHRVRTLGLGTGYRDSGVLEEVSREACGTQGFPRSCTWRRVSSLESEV
Assay [2] deals with T1, Glutamate receptor ionotropic, NMDA 2C. Description: Ability to displace [3H]TCP from PCP receptor in tissue homogenate preparation of fresh whole rat brain minus cerebellum. Format: tissue-based.

On to `O=Cc1cccc(C2(N3CC=CCC3)CCCCC2)c1`, for which, in assay [1], affinity was put at a Ki of 324 nM.

Consider `Oc1cccc(C2(N3CC=CCC3)CCCCC2)c1`, for which the Ki – broadly, the equilibrium dissociation constant of an inhibitor or competing ligand from its target – in assay [2] was 7 nM. Still for that read-out and setting: to `C1=CCN(C2(c3cccc(OCc4ccccc4)c3)CCCCC2)CC1` belongs 733 nM; to `C1=CCN(C2(c3cccs3)CCCCC2)CC1`, 12 nM. `O/N=C/c1cccc(C2(N3CC=CCC3)CCCCC2)c1` yielded a Ki in assay [2] of 56 nM. Molecule `Fc1cccc(C2(N3CC=CCC3)CCCCC2)c1` returned a Ki in assay [1] of 281 nM. The same measure, in the same setting: next, `Cc1cccc(C2(N3CC=CCC3)CCCCC2)c1`: 81 nM; `CC(=O)Oc1cccc(C2(N3CC=CCC3)CCCCC2)c1`: 6 nM; `C1=CCN(C2(c3ccccc3)CCCCC2)CC1`: 37 nM. In assay [1], `C=Cc1cccc(C2(N3CC=CCC3)CCCCC2)c1` came in with a Ki of 114 nM.

In assay [2], `COc1cccc(C2(N3CC=CCC3)CCCCC2)c1` returned a Ki of 33 nM.

In turn, `FC(F)(F)c1cccc(C2(N3CC=CCC3)CCCCC2)c1` came in with a Ki in assay [1] of 422 nM. The same measure, in the same setting: to `CSc1cccc(C2(N3CC=CCC3)CCCCC2)c1` belongs 231 nM. In turn, `COc1cc(OC)cc(C2(N3CC=CCC3)CCCCC2)c1` displayed a Ki in assay [2] of 8600 nM. Take `C1=CCN(C2(c3cccc(C4OCCO4)c3)CCCCC2)CC1`: in assay [2], the Ki stood at 601 nM. For the molecule `COCOc1cccc(C2(N3CC=CCC3)CCCCC2)c1`, in assay [1], the affinity corresponds to a Ki of 92 nM.
